Reference: US9458095B2, “Oligo-benzamide compounds and their use in treating cancers” (The Board of Regents of the University of Texas System, priority 2011, dated 2016)
“Also recorded” adds a separate entry of the source.

Tests used:
Type in all cases: cell-based
ARv7 regulated genes = assay: Q-PCR of ARv7 regulated genes; conditions: data not shown
From the text: Finally, confirmation of the role of T6 in modulating ARv7 driven transcription was obtained by evaluation of the gene expression of ARv7 regulated genes.

[1] = tested on: ARE activity in CWR22v1 cells (ARwt and ARv7); assay: ARE-luciferase reporter in CWR22v1 cells
Method: FIG. 4. Effect of T6 on basal level of ARE expression in CWR22v1 cells. CWR22v1 cells were transiently transfected with ARE-luciferase. Cells were maintained for 48 h without (EtOH) and in the presence of 100 nM of peptidomimetic or volume equivalent of vehicle (DMSO) control or 10 μM of casodex or MDV3100.

ARv7 = biological target: T1, ARv7 (Homo sapiens, UniProt P10275); assay: ARE-luciferase reporter in PC-3 cells expressing ARv7; parameters: expressed in transfected cells; host or cells: PC-3 cells (A4); M12 cells (A9); conditions: 100 nM peptidomimetic, 48 h
T1 sequence (P10275 1-644 isoform P10275-3): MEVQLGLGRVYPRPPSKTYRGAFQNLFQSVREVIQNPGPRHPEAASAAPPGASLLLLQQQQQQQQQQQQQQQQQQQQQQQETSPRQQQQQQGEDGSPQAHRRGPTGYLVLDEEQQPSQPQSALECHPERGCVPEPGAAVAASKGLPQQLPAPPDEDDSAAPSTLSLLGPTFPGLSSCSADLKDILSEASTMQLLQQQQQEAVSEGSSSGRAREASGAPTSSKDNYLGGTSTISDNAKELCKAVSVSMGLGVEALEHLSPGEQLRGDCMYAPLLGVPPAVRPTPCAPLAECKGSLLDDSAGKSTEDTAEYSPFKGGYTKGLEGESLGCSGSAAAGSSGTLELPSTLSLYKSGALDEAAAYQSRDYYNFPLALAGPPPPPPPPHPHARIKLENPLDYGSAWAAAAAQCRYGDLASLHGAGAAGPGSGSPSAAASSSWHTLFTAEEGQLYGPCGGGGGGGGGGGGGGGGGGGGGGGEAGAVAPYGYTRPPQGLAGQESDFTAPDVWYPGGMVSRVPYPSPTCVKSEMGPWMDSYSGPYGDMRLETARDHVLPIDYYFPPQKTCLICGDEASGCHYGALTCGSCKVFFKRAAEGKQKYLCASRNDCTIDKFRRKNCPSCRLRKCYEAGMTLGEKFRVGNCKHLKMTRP
Method: (§1) FIGS. 2A-D. Oligobenzamide control of PC3 cell proliferation. (FIG. 2A) Structure of AR deletion mutants with numbered exons (FIG. 2B) Effect of D2 and T6 on basal (AI) and AD transcription. PC-3 cells were transiently transfected with ARE-luciferase along with plasmids expressing ARwt (FIG. 2B), ARv7 (FIG. 2C) or ARΔ1 (FIG. 2D). Cells were maintained for 48 h either without (EtOH) or with (1 nM DHT) and in the presence of 100 nM of peptidomimetic or volume equivalent of vehicle (DMSO) control. Luciferase assay results are shown. Data is normalized to the basal level of expression with AR wt in PC3 cells.
(§2) FIGS. 3A-B. Effect of T6 on basal transcription driven by splice variants. PC-3 cells were transiently transfected with ARE-luciferase along with plasmids expressing ARv7 (FIG. 3A) or AR567 (FIG. 3B). Cells were maintained for 48 h either without (EtOH) or with (1 nM DHT) and in the presence of 100 nM of peptidomimetic or volume equivalent of vehicle (DMSO) control. Luciferase assay results are shown. Data is normalized to the basal level of expression with AR wt in PC3 cells.
Since the WxxLF motif is also present in the truncated forms of the androgen receptor, the inventors then evaluated the ability of the peptidomimetics to block ARv7-driven transcription from a minimal ARE luciferase reporter. […]

ARΔ1 = biological target: T2, ARΔ1 (Homo sapiens, UniProt P10275); assay: ARE-luciferase reporter in PC-3 cells expressing ARΔ1; conditions: 100 nM peptidomimetic, 48 h
T2 construct: expressed in transfected cells; host or cells: PC-3 cells
T2 sequence (P10275 540-920 limits assumed): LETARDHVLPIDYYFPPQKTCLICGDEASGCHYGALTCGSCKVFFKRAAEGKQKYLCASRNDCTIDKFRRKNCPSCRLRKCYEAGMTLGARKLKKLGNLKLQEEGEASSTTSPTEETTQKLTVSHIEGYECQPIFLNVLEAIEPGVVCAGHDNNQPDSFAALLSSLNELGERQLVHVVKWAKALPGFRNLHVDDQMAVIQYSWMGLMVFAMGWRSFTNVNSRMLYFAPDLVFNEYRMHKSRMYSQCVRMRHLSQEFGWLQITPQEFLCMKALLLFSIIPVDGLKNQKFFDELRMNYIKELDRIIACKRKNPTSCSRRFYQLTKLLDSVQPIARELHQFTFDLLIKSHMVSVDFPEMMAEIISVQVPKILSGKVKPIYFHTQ
Method: as §1
Since the WxxLF motif is also present in the truncated forms of the androgen receptor, the inventors then evaluated the ability of the peptidomimetics to block ARv7-driven transcription from a minimal ARE luciferase reporter. […] These findings were confirmed with a synthetic AR with point mutations in the WxxLF motif (data not shown).

AR567 = biological target: T3, AR567 (Homo sapiens, UniProt P10275); assay: ARE-luciferase reporter in PC-3 cells expressing AR567; conditions: 100 nM peptidomimetic, 48 h
T3 construct: expressed in transfected cells; host or cells: PC-3 cells
T3 sequence (P10275 with tags, fused parts or gaps limits assumed): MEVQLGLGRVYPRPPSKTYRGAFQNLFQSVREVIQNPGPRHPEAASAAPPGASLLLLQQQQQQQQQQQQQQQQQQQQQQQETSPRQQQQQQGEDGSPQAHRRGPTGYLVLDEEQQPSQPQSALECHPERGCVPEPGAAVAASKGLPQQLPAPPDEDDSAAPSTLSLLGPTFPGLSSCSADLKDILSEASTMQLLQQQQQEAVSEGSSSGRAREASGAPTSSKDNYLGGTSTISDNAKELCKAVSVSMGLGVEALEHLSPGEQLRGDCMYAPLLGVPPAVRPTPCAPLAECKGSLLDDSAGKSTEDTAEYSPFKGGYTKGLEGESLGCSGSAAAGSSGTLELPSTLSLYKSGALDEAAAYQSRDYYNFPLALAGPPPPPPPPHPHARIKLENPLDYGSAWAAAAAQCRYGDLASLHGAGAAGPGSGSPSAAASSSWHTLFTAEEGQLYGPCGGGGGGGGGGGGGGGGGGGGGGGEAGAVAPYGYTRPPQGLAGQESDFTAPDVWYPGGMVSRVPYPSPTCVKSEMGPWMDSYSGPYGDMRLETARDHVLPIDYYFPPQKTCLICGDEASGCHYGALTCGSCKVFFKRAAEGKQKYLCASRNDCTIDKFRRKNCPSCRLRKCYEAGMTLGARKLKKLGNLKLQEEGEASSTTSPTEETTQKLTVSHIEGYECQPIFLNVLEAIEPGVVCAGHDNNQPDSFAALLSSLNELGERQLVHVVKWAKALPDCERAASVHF
Method: as §2

With `CC(C)COc1cc(C(N)=O)ccc1NC(=O)c1ccc(NC(=O)c2ccc([N+](=O)[O-])c(OCCc3ccc4ccccc4c3)c2)c(OCC(C)C)c1` [T6] the “expression of a panel of ARv7 regulated genes (Q-PCR)” value (ARv7 regulated genes) was “able to abrogate”, the “basal transcription from minimal ARE luciferase in CWR22v1 cells (driven by ARv7)” value ([1]; 100 nM peptidomimetic, 48 h, without androgen (EtOH)) was “able to suppress; also recorded: abrogated” and the “DHT-induced transcription from minimal ARE luciferase in CWR22v1 cells” value ([1]; DHT) was “able to suppress”. The ARv7-mediated transcription (ARv7) was “able to block; also recorded: decreases”, the ARΔ1-mediated transcription (ARΔ1) was “not able to block” and the “transcription driven by AR567 splice variant” value (AR567) was “decreases”.
